Reference: patent US7071219B2, “Mono-acylated o-phenylendiamines derivatives” (Hoffmann-La Roche Inc., priority 2004, dated 2006)

The compounds below were run on histone deacetylase (HDAC) (assay: cellular acetylation assay (histone acetylation ELISA in PC3 cells)). Conditions: compound 1 μM, 24 h incubation, ELISA with antibodies against acetylated histone H3 or H4.
Assay type: cell-based, human
Protocol: In this assay, acetylation of histones is monitored in PC3 cells. High acetylation correlates with inhibition of histone deacetylase by compounds. Cell viability is monitored in parallel to estimate the cytotoxicity of compounds.
PC3 cells, a human prostate carcinoma cell line, are seeded as 1800 cells per well of a 384-well microtiterplate in RPMI 1640 (including 5% FCS, 2 mM glutamine and pen/strep).
After 48 h at 37° C. pre-diluted compounds are added to a final concentration of 1 uM. Compounds are pre-diluted in dimethyl sulfoxide (DMSO) resulting in a final concentration of DMSO of 0.5% per well.
After 24 h incubation cell viability is determined by adding cell proliferation reagent WST-1 (Roche Molecular Biochemicals). Another 60 min later the optical density (OD) is measured (450 nm versus 690 nm).
After measurement the cell layer is prepared for the ELISA reaction. Medium is aspirated and cells are fixed in ethanol at −20° C. for 60 min. After washing with PBS/Tween the blocking solution (PBS/5% FCS/Tween) is added and the cell layer is washed again. Antibodies against acetylated histone H3 or H4 (rabbit polyklonal IgG, Upstate Biotechnologie) are added at a dilution of 1:200 for 60 min at 37° C. As a second antibody goat anti rabbit IgG (H+L) humanIgG adsorbed-HRP conjugate (Dako) is used (1:2000 diluted). Cells are washed 3 times and the peroxidase substrate ABTS is allowed to react for 30–60 min at 37° C. The OD is measured at 405 nm.
The percentage of acetylation is calculated after substraction of blank O.D.s: […]
For `CC(C)N(CCNC(=O)c1ccc(C(=O)Nc2ccccc2N)nc1)C(C)C` [Example 3-1, pyridine-2,5-dicarboxylic acid 2-[(2-amino-phenyl)-amide]5-[(2-diisopropylamino-ethyl)-amide]], the “cell acetylation (PC3, 1 μM) [% of control]” value was 244.8 % of control.
With `CCCCCC(C)NC(=O)c1ccc(C(=O)Nc2ccccc2N)s1` (stereo not shown) [Example 1-6, Thiophene-2,5-dicarboxylic acid 2-[(2-amino-phenyl)-amide]5-[(1-methyl-hexyl)-amide]] the “cell acetylation (PC3, 1 μM) [% of control]” value was 122.9 % of control.
With `CCOC(=O)CC(C)NC(=O)c1ccc(C(=O)Nc2ccccc2N)nc1` (stereo not shown) [Example 3-9, 3-{[6-(2-amino-phenylcarbamoyl)-pyridine-3-carbonyl]-amino}-butyric acid ethyl ester] the “cell acetylation (PC3, 1 μM) [% of control]” value was 211.6 % of control.
With `CN(C)CC(C)(C)CNC(=O)c1ccc(C(=O)Nc2ccccc2N)s1` [Example 1-17, Thiophene-2,5-dicarboxylic acid 2-[(2-amino-phenyl)-amide]5-[(3-dimethylamino-2,2-dimethylpropyl)-amide]] the “cell acetylation (PC3, 1 μM) [% of control]” value was 149.8 % of control.
In the case of `CCCCN(CCCC)CCCNC(=O)c1ccc(C(=O)Nc2ccccc2N)nc1` [Example 3-20, pyridine-2,5-dicarboxylic acid 2-[(2-amino-phenyl)-amide]5-[(3-dibutylamino-propyl)-amide]], the “cell acetylation (PC3, 1 μM) [% of control]” value is reported as 223.8 % of control.
In the case of `CC(C)N(CCNC(=O)c1ccc(C(=O)Nc2ccccc2N)cc1)C(C)C` [Example 4-1, N-(2-amino-phenyl)-N′-(2-diisopropylamino-ethyl)-terephthalamide], the “cell acetylation (PC3, 1 μM) [% of control]” value is reported as 399.3 % of control.
In the case of `CC(=O)Nc1ccc(C(=O)Nc2ccccc2N)cc1` [Reference Compound, 4-acetylamino-N-(2-aminophenyl)-benzamide, reference compound], the “cell acetylation (PC3, 1 μM) [% of control]” value is reported as 152 % of control.
With `NC(=O)c1ccc(C(=O)Nc2ccccc2N)s1` [Example 1-44, thiophene-2,5-dicarboxylic acid 2-amide 5-[(2-amino-phenyl)-amide]] the “cell acetylation (PC3, 1 μM) [% of control]” value was 185.6 % of control.
For `CN(C)CCNC(=O)c1ccc(C(=O)Nc2ccccc2N)nc1` [Example 3-5, pyridine-2,5-dicarboxylic acid 2-[(2-amino-phenyl)-amide]5-[(2-dimethylamino-ethyl)-amide]], the “cell acetylation (PC3, 1 μM) [% of control]” value was 154.6 % of control.
For `CCCCN(CCCC)CCCNC(=O)c1ccc(C(=O)Nc2ccccc2N)s1` [Example 1-4, Thiophene-2,5-dicarboxylic acid 2-[(2-amino-phenyl)-amide]5-[(3-dibutylamino-propyl)-amide]], the “cell acetylation (PC3, 1 μM) [% of control]” value was 195.7 % of control.
`CC(C)N(CCNC(=O)c1ccc(C(=O)Nc2ccccc2N)cn1)C(C)C` [Example 2-1, Pyridine-2,5-dicarboxylic acid 5-[(2-amino-phenyl)-amide]2-[(2-diisopropylamino-ethyl)-amide]] was tested, and the “cell acetylation (PC3, 1 μM) [% of control]” value was 206.6 % of control.
For `CN(C)CCNC(=O)c1ccc(C(=O)Nc2ccccc2N)s1` [Example 1-18, Thiophene-2,5-dicarboxylic acid 2-[(2-amino-phenyl)-amide]5-[(2-dimethylaminoethyl)-amide]], the “cell acetylation (PC3, 1 μM) [% of control]” value was 233.9 % of control.
In the case of `CCC(C)CNC(=O)c1ccc(C(=O)Nc2ccccc2N)s1` (stereo not shown) [Example 1-35, Thiophene-2,5-dicarboxylic acid 2-[(2-amino-phenyl)-amide]5-[(2-methyl-butyl)-amide]], the “cell acetylation (PC3, 1 μM) [% of control]” value is reported as 135.4 % of control.
In the case of `CCCCN(C)C(=O)c1ccc(C(=O)Nc2ccccc2N)s1` [Example 1-19, thiophene-2,5-dicarboxylic acid 2-[(2-amino-phenyl)-amide]5-(butyl-methyl-amide)], the “cell acetylation (PC3, 1 μM) [% of control]” value is reported as 118.8 % of control.
In the case of `CCCC(C)NC(=O)c1ccc(C(=O)Nc2ccccc2N)s1` (stereo not shown) [Example 1-1, Thiophene-2,5-dicarboxylic acid 2-[(2-amino-phenyl)-amide]5-[(1-methyl-butyl)-amide]], the “cell acetylation (PC3, 1 μM) [% of control]” value is reported as 137.2 % of control.
With `CCC(C)NC(=O)c1ccc(C(=O)Nc2ccccc2N)s1` (stereo not shown) [Example 1-24, Thiophene-2,5-dicarboxylic acid 2-[(2-amino-phenyl)-amide]5-sec-butylamide] the “cell acetylation (PC3, 1 μM) [% of control]” value was 211.2 % of control.
